Results as given in PubChem BioAssay (NCI).
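Cells were grown in 96-well plates and exposed to each compound for 48 hours at five concentrations; endpoints were interpolated linearly between bracketing concentrations, or set to the highest concentration if not reached. GI50 marks 50% less growth. TGI marks complete inhibition of growth.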

Assays:
Test in all cases: NCI tumour cell line growth inhibition, 48 h
[1] = system: NCI-H522 lung
[2] = system: HCC-2998 colon
[3] = system: T-47D breast
[4] = system: SK-MEL-28 melanoma
[5] = system: HCT-116 colon
[6] = system: ACHN renal
[7] = system: BT-549 breast
[8] = system: NCI-H226 lung
[9] = system: M14 melanoma
[10] = system: MCF7 breast
[11] = system: HT29 colon
[12] = system: HOP-62 NSCLC
[13] = system: K-562 leukemia
[14] = system: CCRF-CEM leukemia
[15] = system: IGROV1 ovarian
[16] = system: 786-0 renal
[17] = system: SNB-19 CNS
[18] = system: HOP-92 NSCLC
[19] = system: NCI-H23 lung
[20] = system: U251 CNS
[21] = system: HS 578T breast
[22] = system: SR leukemia
[23] = system: UACC-257 melanoma
[24] = system: EKVX NSCLC
[25] = system: OVCAR-5 ovarian
[26] = system: OVCAR-3 ovarian
[27] = system: OVCAR-8 ovarian
[28] = system: HL-60(TB) leukemia
[29] = system: SK-MEL-2 melanoma
[30] = system: SF-295 CNS
[31] = system: RXF 393 renal
[32] = system: A498 renal
[33] = system: SNB-75 CNS
[34] = system: MALME-3M melanoma
[35] = system: NCI/ADR-RES ovarian
[36] = system: SW-620 colon
[37] = system: SF-268 CNS
[38] = system: SK-OV-3 ovarian
[39] = system: UO-31 renal
[40] = system: PC-3 prostate
[41] = system: OVCAR-4 ovarian
[42] = system: MDA-MB-435
[43] = system: KM12 colon
[44] = system: A549 NSCLC
[45] = system: CAKI-1 renal
[46] = system: DU-145 prostate
[47] = system: COLO 205 colon
[48] = system: MOLT-4 leukemia
[49] = system: TK-10 renal
[50] = system: UACC-62 melanoma
[51] = system: SK-MEL-5 melanoma
[52] = system: MDA-MB-231 breast
[53] = system: NCI-H460 lung
[54] = system: SN12C renal
[55] = system: HCT-15 colon
[56] = system: SF-539 CNS
[57] = system: LOX IMVI melanoma
[58] = system: RPMI-8226 leukemia

## COc1ccc(-c2ccc(OC)c(OC)c2OC)cc1
[1]
  GI50: 1.56 µM
  TGI: > 27.9 µM
[2]
  GI50: 2.65 µM
  TGI: 32 µM
[3]
  GI50: 5.87 µM
  TGI: > 100 µM
[4]
  GI50: 14.9 µM
  TGI: > 100 µM
[5]
  GI50: 1.13 µM
  TGI: 32.6 µM
[6]
  GI50: 8 µM
  TGI: > 100 µM
[7]
  GI50: 1.57 µM
  TGI: > 62.6 µM
[8]
  GI50: 17.3 µM
  TGI: > 100 µM
[9]
  GI50: 0.817 µM
  TGI: > 77.8 µM
[10]
  GI50: 1.77 µM
  TGI: > 100 µM
[11]
  GI50: 0.529 µM
  TGI: > 100 µM
[12]
  GI50: 2.87 µM
  TGI: > 100 µM
[13]
  GI50: 0.431 µM
  TGI: > 100 µM
[14]
  GI50: 2.19 µM
  TGI: > 100 µM
[15]
  GI50: 4.08 µM
  TGI: > 100 µM
[16]
  GI50: 8.23 µM
  TGI: 82.2 µM
[17]
  GI50: 4.83 µM
  TGI: > 100 µM
[18]
  GI50: 1.32 µM
  TGI: 63 µM
[19]
  GI50: 4.19 µM
  TGI: > 100 µM
[20]
  GI50: 2.01 µM
  TGI: > 100 µM
[21]
  GI50: 1.82 µM
  TGI: > 23.1 µM
[22]
  GI50: 0.572 µM
  TGI: > 100 µM
[23]
  GI50: > 73.8 µM
  TGI: > 100 µM
[24]
  GI50: 4.1 µM
  TGI: > 100 µM
[25]
  GI50: 8.66 µM
  TGI: > 100 µM
[26]
  GI50: 1.41 µM
  TGI: 4.49 µM
[27]
  GI50: 6.9 µM
  TGI: > 100 µM
[28]
  GI50: 1.04 µM
  TGI: 9.93 µM
[29]
  GI50: 3.8 µM
  TGI: > 100 µM
[30]
  GI50: 1.7 µM
  TGI: > 100 µM
[31]
  GI50: 2.83 µM
  TGI: > 100 µM
[32]
  GI50: 2.27 µM
  TGI: > 31.2 µM
[33]
  GI50: 3.34 µM
  TGI: > 100 µM
[34]
  GI50: 9.53 µM
  TGI: > 100 µM
[35]
  GI50: 0.529 µM
  TGI: 5.38 µM
[36]
  GI50: 0.528 µM
  TGI: > 100 µM
[37]
  GI50: 9.28 µM
  TGI: > 100 µM
[38]
  GI50: 2.63 µM
  TGI: 62 µM
[39]
  GI50: 4.6 µM
  TGI: > 100 µM
[40]
  GI50: 3.62 µM
  TGI: > 100 µM
[41]
  GI50: 5.42 µM
  TGI: > 100 µM
[42]
  GI50: 0.239 µM
  TGI: 0.833 µM
[43]
  GI50: 0.767 µM
  TGI: > 51.8 µM
[44]
  GI50: 5.74 µM
  TGI: > 100 µM
[45]
  GI50: 1.77 µM
  TGI: > 100 µM
[46]
  GI50: 2.83 µM
  TGI: 19.3 µM
[47]
  GI50: 1.74 µM
  TGI: 6.83 µM
[48]
  GI50: 2.39 µM
  TGI: > 100 µM
[49]
  GI50: 5.1 µM
  TGI: > 100 µM
[50]
  GI50: 3.29 µM
  TGI: > 100 µM
[51]
  GI50: 2.68 µM
  TGI: > 45.2 µM
[52]
  GI50: 3.21 µM
  TGI: > 74.5 µM
[53]
  GI50: 2.7 µM
  TGI: > 48 µM
[54]
  GI50: 6.88 µM
  TGI: > 100 µM
[55]
  GI50: 0.766 µM
  TGI: > 100 µM
[56]
  GI50: 1.24 µM
  TGI: 5.31 µM
[57]
  GI50: 2.82 µM
  TGI: > 100 µM
[58]
  GI50: 3.27 µM
  TGI: > 100 µM

## COc1cc(C2CC(c3ccc(Nc4nc(NCCO)nc(NCCO)n4)cc3)=NN2c2cc(Cl)cc(Cl)c2)cc(OC)c1OC (stereo not drawn)
[1]
  GI50: 2.25 µM
  TGI: 9.21 µM
[2]
  GI50: 2.14 µM
  TGI: 4.84 µM
[3]
  GI50: 1.18 µM
  TGI: 12.1 µM
[4]
  GI50: 1.53 µM
  TGI: 3.14 µM
[5]
  GI50: 1.28 µM
  TGI: 2.67 µM
[6]
  GI50: 2.58 µM
  TGI: 13.1 µM
[7]
  GI50: 1.67 µM
  TGI: 4.54 µM
[8]
  GI50: 3.85 µM
  TGI: 16.8 µM
[9]
  GI50: 1.58 µM
  TGI: 3.24 µM
[10]
  GI50: 1.26 µM
  TGI: 2.94 µM
[11]
  GI50: 1.52 µM
  TGI: 3.25 µM
[13]
  GI50: 1.47 µM
  TGI: 3.58 µM
[14]
  GI50: 2.53 µM
  TGI: 10.7 µM
[15]
  GI50: 2.02 µM
  TGI: 4.8 µM
[16]
  GI50: 1.29 µM
  TGI: 2.59 µM
[17]
  GI50: 1.72 µM
  TGI: 4.12 µM
[18]
  GI50: 1.46 µM
  TGI: 6.73 µM
[19]
  GI50: 2.02 µM
  TGI: 4.97 µM
[20]
  GI50: 1.25 µM
  TGI: 2.81 µM
[21]
  GI50: 0.644 µM
  TGI: 3.34 µM
[22]
  GI50: 1.29 µM
  TGI: 4.11 µM
[23]
  GI50: 1.86 µM
  TGI: 3.87 µM
[24]
  GI50: 2.03 µM
  TGI: 6.17 µM
[25]
  GI50: 2.15 µM
  TGI: 7.56 µM
[26]
  GI50: 1.62 µM
  TGI: 3.13 µM
[27]
  GI50: 2.01 µM
  TGI: 5.86 µM
[28]
  GI50: 1.5 µM
  TGI: 3.43 µM
[29]
  GI50: 15.5 µM
  TGI: 28.9 µM
[30]
  GI50: 1.16 µM
  TGI: 2.87 µM
[31]
  GI50: 0.568 µM
  TGI: 2.34 µM
[32]
  GI50: 16.6 µM
  TGI: 30.2 µM
[33]
  GI50: 1.05 µM
  TGI: 3.05 µM
[34]
  GI50: 1.96 µM
  TGI: 3.84 µM
[35]
  GI50: 3.37 µM
  TGI: 12.8 µM
[36]
  GI50: 1.8 µM
  TGI: 3.79 µM
[37]
  GI50: 1.52 µM
  TGI: 4.09 µM
[38]
  GI50: 11.1 µM
  TGI: 23.1 µM
[39]
  GI50: 2.08 µM
  TGI: 8.09 µM
[40]
  GI50: 1.04 µM
  TGI: 3.61 µM
[41]
  GI50: 1.63 µM
  TGI: 3.66 µM
[42]
  GI50: 1.55 µM
  TGI: 3.24 µM
[43]
  GI50: 1.53 µM
  TGI: 3.21 µM
[44]
  GI50: 1.38 µM
  TGI: 3.22 µM
[46]
  GI50: 1.84 µM
  TGI: 4.11 µM
[47]
  GI50: 2.7 µM
  TGI: 9.29 µM
[48]
  GI50: 1 µM
  TGI: 4.12 µM
[49]
  GI50: 2.01 µM
  TGI: 4.45 µM
[50]
  GI50: 1.58 µM
  TGI: 3.04 µM
[51]
  GI50: 1.7 µM
  TGI: 3.34 µM
[52]
  GI50: 1.45 µM
  TGI: 3.44 µM
[53]
  GI50: 1.77 µM
  TGI: 3.8 µM
[54]
  GI50: 1.75 µM
  TGI: 3.82 µM
[55]
  GI50: 1.5 µM
  TGI: 3.13 µM
[56]
  GI50: 1.2 µM
  TGI: 2.57 µM
[57]
  GI50: 1.6 µM
  TGI: 3.1 µM
[58]
  GI50: 1.15 µM
  TGI: 6.28 µM
